From paper PMC12704298, “Divergent acetyl-CoA binding modes mediate allosteric inhibition of bacterial hybrid-type malic enzymes” (The Journal of Biological Chemistry, 2025)

Columns and labels:
EcMaeB [1] = target: T1, EcMaeB (Escherichia coli, UniProt P76558); assay: Enzyme kinetic parameters (Michaelis-Menten, substrate inhibition, empirical Hill plots); type: biochemical; details: EcMaeB; versus malate, not conclusive
T1 construct: His-tag (C); made in house; host or cells: E. coli BL21(DE3)
T1 sequence (P76558 1-759): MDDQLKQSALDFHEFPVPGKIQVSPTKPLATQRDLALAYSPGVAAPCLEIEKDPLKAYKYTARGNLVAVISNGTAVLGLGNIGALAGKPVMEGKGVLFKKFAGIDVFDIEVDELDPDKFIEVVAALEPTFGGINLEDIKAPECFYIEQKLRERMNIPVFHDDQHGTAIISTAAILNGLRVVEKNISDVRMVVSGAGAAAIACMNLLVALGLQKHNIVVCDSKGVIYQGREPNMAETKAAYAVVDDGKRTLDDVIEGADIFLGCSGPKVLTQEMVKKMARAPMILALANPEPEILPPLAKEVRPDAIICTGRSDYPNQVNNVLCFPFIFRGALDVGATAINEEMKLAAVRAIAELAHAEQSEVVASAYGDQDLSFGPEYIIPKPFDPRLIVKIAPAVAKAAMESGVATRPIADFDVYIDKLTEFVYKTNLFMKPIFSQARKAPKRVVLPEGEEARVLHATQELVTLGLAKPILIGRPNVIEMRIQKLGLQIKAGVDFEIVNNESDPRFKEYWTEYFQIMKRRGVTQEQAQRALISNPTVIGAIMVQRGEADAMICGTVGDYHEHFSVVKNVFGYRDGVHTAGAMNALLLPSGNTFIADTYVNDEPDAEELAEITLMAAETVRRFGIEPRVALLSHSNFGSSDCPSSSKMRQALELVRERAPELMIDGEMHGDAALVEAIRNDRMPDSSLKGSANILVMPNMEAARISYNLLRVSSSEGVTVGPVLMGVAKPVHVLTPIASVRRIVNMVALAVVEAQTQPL
Description: (§1) Spectrophotometric assays were used to monitor the oxidative decarboxylation of L-malate to pyruvate using a SpectraMax M2, UV-Visible spectrophotometer (Molecular Devices) operated by SoftMax Pro Software with kinetic mode. All assays recorded the Δabsorbance at 340 nm (NADPH) at 30 °C. Assays were initiated by the addition of enzyme to the otherwise complete reaction mixture. […] Acetyl-CoA was tested at 5 μM.
(§2) For this substrate inhibition model, x should be fixed. […] The plots shown in Fig. S1F were fitted to the empirical Hill equation: v0=Vmax·[malate]^h/(K0.5h+[malate]^h) where K0.5 indicates the substrate concentration for half-saturation. When h is equal to 1, K0.5 matches Michaelis constant Km.

EcMaeB R482A = tested on: T2, EcMaeB R482A; assay: %Activity assay with 5 μM acetyl-CoA; type: biochemical, Escherichia coli
T2 construct: His-tag (C); made in house; host or cells: E. coli BL21(DE3)
Description: (§3) Spectrophotometric assays were used to monitor the oxidative decarboxylation of L-malate to pyruvate using a SpectraMax M2, UV-Visible spectrophotometer (Molecular Devices) operated by SoftMax Pro Software with kinetic mode. All assays recorded the Δabsorbance at 340 nm (NADPH) at 30 °C. Assays were initiated by the addition of enzyme to the otherwise complete reaction mixture. […] Acetyl-CoA was tested at 5 μM. The results are presented as “%Activity”: a percentage of the measured activity in the presence of effector compared to the measured activity of MaeB under standard reaction conditions.

EcMaeB WT = tested on: T3, EcMaeB WT; assay: %Activity assay with 5 μM acetyl-CoA; type: biochemical, Escherichia coli
T3 construct: His-tag (C); made in house; host or cells: E. coli BL21(DE3)
Description: as §3

EcMaeB R475A/R482A = tested on: T4, EcMaeB R475A/R482A; assay: %Activity assay with 5 μM acetyl-CoA; type: biochemical, Escherichia coli
T4 construct: His-tag (C); made in house; host or cells: E. coli BL21(DE3)
Description: as §3

EcMaeB R475A/R482A/Y510A = tested on: T5, EcMaeB R475A/R482A/Y510A; assay: %Activity assay with 5 μM acetyl-CoA; type: biochemical, Escherichia coli
T5 construct: His-tag (C); made in house; host or cells: E. coli BL21(DE3)
Description: as §3

EcMaeB R482A/Y510A = tested on: T6, EcMaeB R482A/Y510A; assay: %Activity assay with 5 μM acetyl-CoA; type: biochemical, Escherichia coli
T6 construct: His-tag (C); made in house; host or cells: E. coli BL21(DE3)
Description: as §3

EcMaeB R475A/Y510A = tested on: T7, EcMaeB R475A/Y510A; assay: %Activity assay with 5 μM acetyl-CoA; type: biochemical, Escherichia coli
T7 construct: His-tag (C); made in house; host or cells: E. coli BL21(DE3)
Description: as §3

EcMaeB Y510A = tested on: T8, EcMaeB Y510A; assay: %Activity assay with 5 μM acetyl-CoA; type: biochemical, Escherichia coli
T8 construct: His-tag (C); made in house; host or cells: E. coli BL21(DE3)
Description: as §3

EcMaeB R475A = tested on: T9, EcMaeB R475A; assay: %Activity assay with 5 μM acetyl-CoA; type: biochemical, Escherichia coli
T9 construct: His-tag (C); made in house; host or cells: E. coli BL21(DE3)
Description: as §3

BbMaeB-HD = tested on: BbMaeB-HD; design: method as in PMID 33623032; details: earlier study; cited from earlier work
AbMaeB1 = tested on: AbMaeB1; design: method as in PMID 32485238; details: AbMaeB1, compared to EcMaeB and BbMaeB; cited from earlier work
BbMaeB = target: T10, BbMaeB (Bdellovibrio bacteriovorus, UniProt A0A1Z3N8R4); assay: Enzyme kinetic parameters (Michaelis-Menten, substrate inhibition, empirical Hill plots); type: biochemical, Bdellovibrio bacteriovorus strain SSB218315; details: versus malate
T10 sequence (A0A1Z3N8R4 1-776): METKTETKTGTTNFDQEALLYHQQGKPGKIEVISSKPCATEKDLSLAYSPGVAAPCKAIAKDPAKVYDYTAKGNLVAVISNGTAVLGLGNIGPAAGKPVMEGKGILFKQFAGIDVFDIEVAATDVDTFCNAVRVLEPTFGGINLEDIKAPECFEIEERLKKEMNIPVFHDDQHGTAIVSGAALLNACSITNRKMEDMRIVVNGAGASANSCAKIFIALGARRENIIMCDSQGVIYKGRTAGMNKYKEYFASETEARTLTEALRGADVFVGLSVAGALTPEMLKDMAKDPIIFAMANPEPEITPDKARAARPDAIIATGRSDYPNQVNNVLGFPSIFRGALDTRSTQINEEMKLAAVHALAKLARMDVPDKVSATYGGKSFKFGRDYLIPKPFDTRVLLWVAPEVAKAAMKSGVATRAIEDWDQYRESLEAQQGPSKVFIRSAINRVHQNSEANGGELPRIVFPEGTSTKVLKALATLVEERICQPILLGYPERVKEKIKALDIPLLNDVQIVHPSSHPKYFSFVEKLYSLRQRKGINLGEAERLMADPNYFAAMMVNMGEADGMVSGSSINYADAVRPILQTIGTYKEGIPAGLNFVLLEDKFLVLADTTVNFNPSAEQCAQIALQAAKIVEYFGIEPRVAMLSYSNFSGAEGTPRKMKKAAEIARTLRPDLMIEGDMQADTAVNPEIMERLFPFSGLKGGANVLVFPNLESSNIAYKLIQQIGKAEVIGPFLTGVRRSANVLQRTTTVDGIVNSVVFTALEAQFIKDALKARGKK
Description: as §1, §2

BbMaeB-SSB = BbMaeB-SSB (Bdellovibrio bacteriovorus, UniProt A0A1Z3N8R4); assay: Acetyl-CoA IC50 plot against MaeB activity (spectrophotometric NADPH assay); type: biochemical, Bdellovibrio bacteriovorus strain SSB218315
Description: as §1
(§4) The IC50 plot for Acetyl-CoA against MaeB activity was obtained by varying acetyl-CoA concentrations. The assay was performed in the standard reaction condition with 100 nM final enzyme concentration. The data were fitted to the four-parameter logistic model: v0=Bottom+Top−Bottom/1+([Acetyl-CoA]/IC50)^h where h means the Hill slope value and “Top” and “Bottom” corresponds to the maximum and minimum v0 of the fitted curve, respectively ([81]). Fitting was performed using Rstudio.

TME = tested on: TME; design: method as in PMID 10407149; details: cited from earlier work
DME = tested on: DME; design: method as in PMID 10407149; details: cited from earlier work
EcMaeB [2] = target: T1, EcMaeB; assay: Acetyl-CoA IC50 plot against MaeB activity (spectrophotometric NADPH assay); type: biochemical
Description: as §1, §4

[3] = 5 mM L-malate, 0.5 mM NADP+, 1 μM enzyme
[4] = relative to WT without acetyl-CoA

CC(=O)SCCNC(=O)CCNC(=O)[C@H](O)C(C)(C)COP(=O)(O)OP(=O)(O)OC[C@H]1O[C@@H](n2cnc3c(N)ncnc32)[C@H](O)[C@@H]1OP(=O)(O)O [acetyl-CoA, acetyl coenzyme A]
mode of inhibition (EcMaeB [1]): may follow a non-competitive mode | effect of acetyl-CoA on activity (EcMaeB R482A): did not change their activity | NADP^+ production, With Acetyl-CoA (EcMaeB R482A; [3]): 8.4 ± 1.4 µM/min | Activity (%), With Acetyl-CoA (EcMaeB R482A; [4]): 32.3 ± 5.5% | effect of acetyl-CoA on activity (EcMaeB WT): reduced the activity by about half | NADP^+ production, With Acetyl-CoA (EcMaeB WT; [3]): 12.1 ± 2.2 µM/min | Activity (%), With Acetyl-CoA (EcMaeB WT; [4]): 46.4 ± 8.5% | effect of acetyl-CoA on activity (EcMaeB R475A/R482A): did not change their activity | NADP^+ production, With Acetyl-CoA (EcMaeB R475A/R482A; [3]): 10.7 ± 0.5 µM/min | Activity (%), With Acetyl-CoA (EcMaeB R475A/R482A; [4]): 40.8 ± 2.0% | effect of acetyl-CoA on activity (EcMaeB R475A/R482A/Y510A): did not change their activity | NADP^+ production, With Acetyl-CoA (EcMaeB R475A/R482A/Y510A; [3]): 10.3 ± 0.4 µM/min | Activity (%), With Acetyl-CoA (EcMaeB R475A/R482A/Y510A; [4]): 39.5 ± 1.4% | effect of acetyl-CoA on activity (EcMaeB R482A/Y510A): did not change their activity | NADP^+ production, With Acetyl-CoA (EcMaeB R482A/Y510A; [3]): 7.0 ± 0.1 µM/min | Activity (%), With Acetyl-CoA (EcMaeB R482A/Y510A; [4]): 26.7 ± 0.5% | NADP^+ production, With Acetyl-CoA (EcMaeB R475A/Y510A; [3]): 31.9 ± 2.0 µM/min | Activity (%), With Acetyl-CoA (EcMaeB R475A/Y510A; [4]): 121.9 ± 7.6% | effect of acetyl-CoA on activity (EcMaeB Y510A): insensitive to allosteric inhibition | NADP^+ production, With Acetyl-CoA (EcMaeB Y510A; [3]): 19.4 ± 4.0 µM/min | Activity (%), With Acetyl-CoA (EcMaeB Y510A; [4]): 74.0 ± 15.4% | effect of acetyl-CoA on activity (EcMaeB R475A): insensitive to allosteric inhibition | NADP^+ production, With Acetyl-CoA (EcMaeB R475A; [3]): 21.6 ± 3.7 µM/min | Activity (%), With Acetyl-CoA (EcMaeB R475A; [4]): 82.4 ± 14.0% | IC50 (BbMaeB-HD): 453 ± 19 nM | allosteric inhibition of AbMaeB1 (AbMaeB1): requires higher concentrated acetyl-CoA to show allosteric inhibition | mode of inhibition (BbMaeB): non-competitive | Hill slope factor derived from the IC50 curve (BbMaeB-SSB; BbMaeB): greater than one | IC50 (BbMaeB-SSB; BbMaeB-SSB, 5 mM L-malate, 0.5 mM NADP+, 5 mM MgCl2, 100 nM enzyme, 30 °C): 131 ± 4 nM | allosteric regulation of TME (TME): does not show any allosteric regulation | effect on DME activity (DME): inhibited | Hill slope factor derived from the IC50 curve (EcMaeB [2]): greater than one | IC50 (EcMaeB [2]; 5 mM L-malate, 0.5 mM NADP+, 5 mM MgCl2, 100 nM enzyme, 30 °C): 102000 ± 4920 nM
